One assay deals with T1, human TLR9 (Homo sapiens, UniProt Q9NR96).
T1 construct: host or cells: HEK-Blue cells
T1 sequence (Q9NR96 26-1032): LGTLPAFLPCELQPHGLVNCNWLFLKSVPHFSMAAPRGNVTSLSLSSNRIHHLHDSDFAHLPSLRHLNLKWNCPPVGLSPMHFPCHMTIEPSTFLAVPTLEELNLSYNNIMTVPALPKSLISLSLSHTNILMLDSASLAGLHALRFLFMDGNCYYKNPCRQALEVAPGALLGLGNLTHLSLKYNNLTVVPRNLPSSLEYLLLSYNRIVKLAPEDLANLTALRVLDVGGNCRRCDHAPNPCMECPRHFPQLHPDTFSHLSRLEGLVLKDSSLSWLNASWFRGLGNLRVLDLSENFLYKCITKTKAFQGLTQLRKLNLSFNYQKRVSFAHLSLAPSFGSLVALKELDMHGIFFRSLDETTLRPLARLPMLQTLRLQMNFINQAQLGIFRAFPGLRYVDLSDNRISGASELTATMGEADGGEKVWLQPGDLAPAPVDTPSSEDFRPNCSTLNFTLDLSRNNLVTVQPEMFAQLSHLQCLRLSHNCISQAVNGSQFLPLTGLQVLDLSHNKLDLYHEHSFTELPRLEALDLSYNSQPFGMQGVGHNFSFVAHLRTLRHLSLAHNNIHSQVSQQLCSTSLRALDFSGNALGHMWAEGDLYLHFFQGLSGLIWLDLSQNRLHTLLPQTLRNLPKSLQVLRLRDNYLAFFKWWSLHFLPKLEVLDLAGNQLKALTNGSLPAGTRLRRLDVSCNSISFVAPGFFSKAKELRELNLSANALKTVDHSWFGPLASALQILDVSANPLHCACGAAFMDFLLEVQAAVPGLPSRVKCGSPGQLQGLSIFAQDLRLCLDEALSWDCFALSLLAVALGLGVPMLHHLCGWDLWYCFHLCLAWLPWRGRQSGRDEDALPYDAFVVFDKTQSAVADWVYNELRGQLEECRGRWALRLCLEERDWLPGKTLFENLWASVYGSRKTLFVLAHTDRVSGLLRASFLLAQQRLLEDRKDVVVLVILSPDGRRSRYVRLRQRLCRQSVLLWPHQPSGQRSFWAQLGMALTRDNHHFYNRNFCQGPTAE
Description: TLR9 inhibition reporter assay (HEK-Blue SEAP). The conditions noted are these: HEK-Blue cells overexpressing human TLR9, ODN2006 5 nM, 22 hour incubation. Format: cell-based. The gist of the method:
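Screening used HEK-Blue cells overexpressing one human TLR (7, 8 or 9) and an IFN-β minimal promoter–NF-κB/AP-1 SEAP construct. Stimulation lasted 22 h at 37 °C with receptor-specific agonist: gardiquimod, R848 or ODN2006 at 7.5 μM, 15.9 μM and 5 nM.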
On the technique in general: A reporter such as luciferase makes a cellular process visible.

Another assay addresses T2, human TLR7 (Homo sapiens, UniProt Q9NYK1).
T2 construct: host or cells: HEK-Blue cells
T2 sequence (Q9NYK1 27-1049): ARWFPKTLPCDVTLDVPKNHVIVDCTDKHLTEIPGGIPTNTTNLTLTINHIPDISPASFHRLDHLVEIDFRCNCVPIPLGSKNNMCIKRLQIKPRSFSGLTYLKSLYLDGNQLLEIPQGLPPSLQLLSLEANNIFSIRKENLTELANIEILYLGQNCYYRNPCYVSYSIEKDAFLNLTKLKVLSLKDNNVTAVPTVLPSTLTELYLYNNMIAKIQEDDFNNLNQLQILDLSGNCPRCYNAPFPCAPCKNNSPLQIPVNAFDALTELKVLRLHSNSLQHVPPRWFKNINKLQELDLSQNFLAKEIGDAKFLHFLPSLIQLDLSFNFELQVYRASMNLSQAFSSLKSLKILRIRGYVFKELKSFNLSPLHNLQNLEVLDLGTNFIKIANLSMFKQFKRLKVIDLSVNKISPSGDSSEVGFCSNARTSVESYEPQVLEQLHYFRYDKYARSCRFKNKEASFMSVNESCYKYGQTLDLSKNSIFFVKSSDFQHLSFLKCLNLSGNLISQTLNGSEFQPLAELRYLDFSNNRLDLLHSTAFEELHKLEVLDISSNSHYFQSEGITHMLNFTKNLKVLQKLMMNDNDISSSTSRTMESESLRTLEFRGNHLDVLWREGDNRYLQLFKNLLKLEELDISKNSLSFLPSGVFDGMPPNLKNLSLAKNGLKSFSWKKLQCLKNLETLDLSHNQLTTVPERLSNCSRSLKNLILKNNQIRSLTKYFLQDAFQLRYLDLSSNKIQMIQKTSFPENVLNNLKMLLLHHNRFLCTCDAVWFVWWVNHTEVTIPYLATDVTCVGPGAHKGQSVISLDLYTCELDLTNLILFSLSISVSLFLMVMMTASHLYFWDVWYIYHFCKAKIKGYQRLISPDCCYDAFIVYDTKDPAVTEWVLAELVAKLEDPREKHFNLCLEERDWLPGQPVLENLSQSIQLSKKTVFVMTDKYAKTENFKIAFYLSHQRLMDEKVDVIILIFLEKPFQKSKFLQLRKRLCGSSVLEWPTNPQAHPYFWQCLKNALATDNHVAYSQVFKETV
Description: TLR7 inhibition reporter assay (HEK-Blue SEAP). Format: cell-based. The conditions noted are these: HEK-Blue cells overexpressing human TLR7, gardiquimod 7.5 μM, 22 hour incubation. The method, boiled down:
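Dose-response testing from 0.05 nM to 50 μM final was done on reporter cells for 22 hours at 37° C. Secreted SEAP was then detected, and inhibition was calculated as percent reduction of the agonist-plus-DMSO signal compared with wells given a known inhibitor.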

Molecules are shown by their SMILES. Where only a bound is given, the exact number is not on record here.

This passage reports IC50 results from patent US12187723B2 (BRISTOL-MYERS SQUIBB COMPANY, priority 2019, dated 2025).

As usually defined, the IC50 is the concentration that inhibits the measured activity by half. Read a high IC50 as weaker potency in that assay. For `COCCN1CCC[C@@H](n2c(=O)[nH]c3cc(-c4cc(OC)c5ncnn5c4)c(C(C)C)cc32)C1` (single isomer, unassigned) [Example 225], the IC50 against human TLR9 was 33800 nM; against human TLR7, 7.96 nM.

As for `COc1cc(-c2cc3[nH]c(=O)n(C4CCC(N5CC6(CCOCC6)C5)CC4)c3cc2C(C)C)cn2ncnc12` (single isomer, unassigned) [Example 236, 1-(4-(7-oxa-2-azaspiro[3.5]nonan-2-yl)cyclohexyl)-6-isopropyl-5-(8-methoxy-[1,2,4]triazolo[1,5-a]pyridin-6-yl)-1,3-dihydro-2H-benzo[d]imidazol-2-one], the IC50 at human TLR9 is 2590 nM; against human TLR7 it was 3.54 nM.

With `CCCN(CCC)[C@H]1CC[C@@H](n2c(=O)[nH]c3cc(-c4cn5ncnc5c(C)c4C)c(C(C)C)cc32)CC1` [Example 199, 5-(7,8-dimethyl-[1,2,4]triazolo[1,5-a]pyridin-6-yl)-1-((1s,4s)-4-(dipropylamino)cyclohexyl)-6-isopropyl-1,3-dihydro-2H-benzo[d]imidazol-2-one], the IC50 on human TLR9 is 3370 nM; against human TLR7 it was 5.03 nM.

Turning to `Cc1c(-c2cc3[nH]c(=O)n([C@H]4CC[C@@H](NC(C)C)CC4)c3cc2C(C)C)cn2ncnc2c1C` [Example 186, 5-(7,8-dimethyl-[1,2,4]triazolo[1,5-a]pyridin-6-yl)-6-isopropyl-1-((1s,4s)-4-(isopropylamino)cyclohexyl)-1,3-dihydro-2H-benzo[d]imidazol-2-one], the half-maximal inhibitory concentration (IC50) against human TLR9 came to 5990 nM; against human TLR7, 0.95 nM.

Regarding `CCc1cc2c(cc1-c1cc(OC)c3ncnn3c1)[nH]c(=O)n2[C@@H]1CCCN(CC2CCC2)C1` [Example 181, (R)-1-(1-(cyclobutylmethyl)piperidin-3-yl)-6-ethyl-5-(8-methoxy-[1,2,4]triazolo[1,5-a]pyridin-6-yl)-1,3-dihydro-2H-benzo[d]imidazol-2-one], the values for the half-inhibitory concentration (IC50) at human TLR9 and at human TLR7 were 6770 nM and 0.81 nM, respectively.

For `Cc1cc2c(cc1-c1cc(C)c3ncnn3c1)[nH]c(=O)n2[C@@H]1CCCN(C(C)C)C1` [Example 17, (R)-1-(1-isopropylpiperidin-3-yl)-6-methyl-5-(8-methyl-[1,2,4]triazolo[1,5-a]pyridin-6-yl)-1,3-dihydro-2H-benzo[d]imidazol-2-one], the results for the IC50 against human TLR9 and against human TLR7 were 5690 nM and 13.1 nM, respectively.

As for `COc1cc(-c2cc3[nH]c(=O)n([C@H]4CC[C@H](NC5COC5)CC4)c3cc2C(C)C)cn2ncnc12` [Example 201, 6-isopropyl-5-(8-methoxy-[1,2,4]triazolo[1,5-a]pyridin-6-yl)-1-((1r,4r)-4-(oxetan-3-ylamino)cyclohexyl)-1,3-dihydro-2H-benzo[d]imidazol-2-one], the IC50 was 22900 nM on human TLR9 and 2.07 nM at human TLR7.

For the compound `CCc1cc2c(cc1-c1cc(OC)c3ncnn3c1)[nH]c(=O)n2[C@@H]1CCCN(C2COC2)C1` [Example 173, (R)-6-ethyl-5-(8-methoxy-[1,2,4]triazolo[1,5-a]pyridin-6-yl)-1-(1-(oxetan-3-yl)piperidin-3-yl)-1,3-dihydro-2H-benzo[d]imidazol-2-one], the concentration for half-maximal inhibition (IC50) at human TLR9 is greater than 50000 nM; against human TLR7, 32 nM.

Turning to `COc1cc(-c2cc3[nH]c(=O)n([C@H]4CCCN(CCS(C)(=O)=O)C4)c3cc2C(C)C)cn2ncnc12` [Example 222, (S)-6-isopropyl-5-(8-methoxy-[1,2,4]triazolo[1,5-a]pyridin-6-yl)-1-(1-(2-(methylsulfonyl)ethyl)piperidin-3-yl)-1,3-dihydro-2H-benzo[d]imidazol-2-one], the half-maximal inhibitory concentration (IC50) against human TLR9 was greater than 50000 nM; on human TLR7 it was 138 nM.

Turning to `CCc1cc2c(cc1-c1cc(OC)c3ncnn3c1)[nH]c(=O)n2[C@@H]1CCCN(C2CCCOC2)C1` (stereo partly drawn) [Example 215, 6-ethyl-5-(8-methoxy-[1,2,4]triazolo[1,5-a]pyridin-6-yl)-1-((3R)-1-(tetrahydro-2H-pyran-3-yl)piperidin-3-yl)-1,3-dihydro-2H-benzo[d]imidazol-2-one], the half-inhibitory concentration (IC50) on human TLR9 turned out to be 21000 nM; at human TLR7 it was 13.4 nM.

For `COc1cc(-c2cc3[nH]c(=O)n([C@H]4CCCN(CC(N)=O)C4)c3cc2C(C)C)cn2ncnc12` [Example 220, (S)-2-(3-(6-isopropyl-5-(8-methoxy-[1,2,4]triazolo[1,5-a]pyridin-6-yl)-2-oxo-2,3-dihydro-1H-benzo[d]imidazol-1-yl)piperidin-1-yl)acetamide], the IC50 is greater than 50000 nM against human TLR9 and 244 nM on human TLR7.

For the compound `COc1c(C)c(-c2cc3[nH]c(=O)n(C4CCC(N5CCC(F)(F)CC5)CC4)c3cc2C(C)C)cn2ncnc12` (single isomer, unassigned) [Example 229, 1-(4-(4,4-difluoropiperidin-1-yl)cyclohexyl)-6-isopropyl-5-(8-methoxy-7-methyl-[1,2,4]triazolo[1,5-a]pyridin-6-yl)-1,3-dihydro-2H-benzo[d]imidazol-2-one], the IC50 on human TLR9 came out at 30000 nM; on human TLR7, 7.31 nM.

In the case of `COc1cc(-c2cc3[nH]c(=O)n(C4CCC(N5CC6(CCOCC6)C5)CC4)c3cc2C(C)C)cn2ncnc12` (single isomer, unassigned) [Example 235, 1-(4-(7-oxa-2-azaspiro[3.5]nonan-2-yl)cyclohexyl)-6-isopropyl-5-(8-methoxy-[1,2,4]triazolo[1,5-a]pyridin-6-yl)-1,3-dihydro-2H-benzo[d]imidazol-2-one], the concentration for half-maximal inhibition (IC50) against human TLR9 amounted to 11200 nM; against human TLR7, 1.52 nM.

On to `COc1cc(-c2cc3[nH]c(=O)n(C4CCC(N5CCNC(=O)C5)CC4)c3cc2C(C)C)cn2ncnc12` (stereo not drawn) [Example 243, 6-isopropyl-5-(8-methoxy-[1,2,4]triazolo[1,5-a]pyridin-6-yl)-1-(4-(3-oxopiperazin-1-yl)cyclohexyl)-1,3-dihydro-2H-benzo[d]imidazol-2-one], for which the IC50 against human TLR9 was greater than 50000 nM; on human TLR7 it was 119 nM.

With `CCCN[C@H]1CC[C@@H](n2c(=O)[nH]c3cc(-c4cc(OC)c5ncnn5c4)c(C(C)C)cc32)CC1` [Example 195, 6-isopropyl-5-(8-methoxy-[1,2,4]triazolo[1,5-a]pyridin-6-yl)-1-((1 s,4s)-4-(propylamino)cyclohexyl)-1,3-dihydro-2H-benzo[d]imidazol-2-one], the figures for the IC50 against human TLR9 and against human TLR7 were 13900 nM and 1.39 nM, respectively.
